From US8188055B2, “Inactivators of O6-alkylguanine-DNA alkyltransferase” (The United States of America, as represented by the …, priority 2007, dated 2012)
Where two headings read alike, the source gives them in different places.

Experiments:
human alkyltransferase [1] = target: T1, human alkyltransferase (Homo sapiens, UniProt P16455); assay: Inactivation of purified recombinant human alkyltransferase in vitro; assay type: biochemical; settings: for inactivation of alkyltransferase compared with parent compound: comparison in words
T1 sequence (P16455 1-207): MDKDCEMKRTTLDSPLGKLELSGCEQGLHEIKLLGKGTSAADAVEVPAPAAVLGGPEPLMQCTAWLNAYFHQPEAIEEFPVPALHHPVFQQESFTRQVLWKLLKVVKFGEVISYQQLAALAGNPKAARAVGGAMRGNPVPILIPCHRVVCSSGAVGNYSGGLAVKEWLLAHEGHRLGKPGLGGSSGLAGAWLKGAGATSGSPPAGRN
Description: ED50 values for the inactivation of purified human alkyltransferase in vitro are obtained as previously described (Nelson et al., J. Med. Chem. 2004, 47, 3887-3891 and Pegg et al., Biochem. Pharmacol. 1997, 53, 1559-1564). Purified recombinant human alkyltransferase is incubated with different concentrations of prodrugs in 0.5 mL of reaction buffer (50 mM Tris-HCl, pH 7.6, 0.1 mM EDTA, 5.0 mM dithiothreitol) containing 50 μg of hemocyanin or 10 μg calf thymus DNA for 30 min at 37° C.

[2] = Release of folate on incubation in neutral solution (ester stability); assay type: physicochemical; settings: incubated in neutral solution
[3] = system: human tumor cell extracts; assay: Release of folate from esters by human tumor cell extracts; assay type: in vitro ADME; settings: 200 μM ester, 2 mg lysate protein, pH 7.4, 37° C
Description: Cells are trypsinized, washed with Hank's balanced salt solution, counted and pelleted. On ice, the cell pellets are resuspended in 50 mM sodium phosphate, 5 mM DTT, pH 7.4 at a concentration of 10^8 cells/ml and disrupted by sonication. The sonicated cells are centrifuged at 12,000×g for 10 min and the supernatant is removed. Complete mini protease inhibitor (Roche, Mannheim Germany) is added as directed by the supplier. Lysate total protein concentration is determined, and the lysates are frozen until used at −20° C. Reactions (600 μL), containing one of the ester substrates (200 μM) and 2 mg of lysate protein in 50 mM phosphate buffer (pH 7.4) are incubated at 37° C. At various times 50 μL, are removed for analysis by HPLC. The amount of folic acid liberated is used to determine the extent of ester hydrolysis.
The rate of release of folate is about 2.2% per day from 1; 3.2% per day from 2; and 0.9% per day from 3. […] The extent of conversion to folate by human tumor cell extracts can vary slightly according to the cell type with MCF-7 cells showing the highest rate of conversion.

HT29 cells = assay: Sensitization of HT29 cells to killing by BCNU, colony-forming assay; assay type: cell-based; settings: RPMI medium, drug 2 h prior to 40 μM BCNU for 2 h
Description: KB, HT29 and A549 cells are grown in RPMI 1640 medium or in RPMI medium lacking folate in the presence of 10% fetal bovine serum. The effect of alkyltransferase inactivators on the sensitivity of cells to BCNU is determined using a colony-forming assay (Wei et al., J. Med. Chem. 2005, 48, 256-261; Nelson et al., J. Med. Chem. 2004, 47, 3887-3891; Chae et al., J. Med. Chem. 1994, 37, 342-347; and Dolan et al., Proc. Natl. Acad. Sci. U.S.A. 1990, 87, 5368-5372). Cells are plated at a density of 10^6 in 25 cm^2 flasks and 24 h later are incubated with different concentrations of potential inhibitors for 2-8 h as indicated before exposure to 20 or 40 μM BCNU for 2 h as previously described (Wei et al., J. Med. Chem. 2005, 48, 256-261; Nelson et al., J. Med. Chem. 2004, 47, 3887-3891). After 2 h, the medium is replaced with fresh medium containing the drug but no BCNU and the cells are left to grow for an additional 16-18 h. The cells are then replated at densities of 250-1000 cells per 25 cm^2 flask and grown for 8 days until discrete colonies have formed. The colonies are washed with 0.9% saline solution, stained with 0.5% crystal violet in ethanol, and counted.

human alkyltransferase [4] = target: T1, human alkyltransferase; settings: previously published, read-out: ED50 for inactivation of alkyltransferase, cited from earlier work
[5] = +DNA (10 μg calf thymus DNA), 30 min at 37° C, read-out: ED50 for inactivation of alkyltransferase
[6] = absence of DNA, read-out: ED50 value in the absence of DNA

| EC50 (human alkyltransferase [1]; [5]) [nM] | increase of ED50 when DNA is present (human alkyltransferase [1]; +DNA versus −DNA) [fold] | EC50 (human alkyltransferase [1]; [6]) [nM] | rate of release of folate [2] | release of folate by extracts from human tumor cells [3] | EC50 (human alkyltransferase [1]; −DNA (hemocyanin), 30 min at 37° C, read-out: ED50 for inactivation of alkyltransferase) [nM] | ED50 lower than O^6-benzylguanine (human alkyltransferase [1]; absence of DNA) [times] | ED50 lower than the parent O^6-benzyl-2′-deoxyguanosine (human alkyltransferase [1]; absence of DNA) [times] | Structure (SMILES) | inactivation of alkyltransferase compared with parent compound (human alkyltransferase [1]) | sensitization of HT29 cells to killing by BCNU (HT29 cells) | EC50 (human alkyltransferase [4]; +DNA) [nM] | EC50 (human alkyltransferase [4]; −DNA) [nM] |
| --- | --- | --- | --- | --- | --- | --- | --- | --- | --- | --- | --- | --- |
| 3060 ± 180 | 5 | 640 | ~3.2 % per day | able to release folate |  |  |  | Nc1nc(OCc2ccccc2)c2ncn([C@H]3CC(O)[C@@H](COC(=O)CC[C@H](NC(=O)c4ccc(NCc5cnc6nc(N)[nH]c(=O)c6n5)cc4)C(=O)O)O3)c2n1 (stereo partly shown) [Compound 2, O^6-Benzyl-5′-O-[γ-folyl]-2′-deoxyguanosine] | more active than O^6-benzyl-2′-deoxyguanosine itself | able to sensitize HT29 cells to killing by BCNU |  |  |
| 240 |  |  | ~0.9 % per day | able to release folate | 700 |  |  | Nc1nc(OCc2ccc(COC(=O)CC[C@H](NC(=O)c3ccc(NCc4cnc5nc(N)[nH]c(=O)c5n4)cc3)C(=O)O)cc2)c2nc[nH]c2n1 [Compound 3, O^6-[4-[(γ-folyl)-oxymethyl]benzyl]guanine] | slightly less effective than the free base parent |  |  |  |
|  |  |  |  |  |  |  |  | Nc1nc(OCc2ccccc2)c2ncn([C@H]3C[C@H](O)[C@@H](CO)O3)c2n1 [O^6-benzyl-2′-deoxyguanosine] |  |  | 40000 | 2000 |
| 680 |  | 16 | about 2.2 % per day | able to release folate |  | 10 | 100 | Nc1nc(OCc2ccccc2)c2ncn([C@H]3CC(OC(=O)CC[C@H](NC(=O)c4ccc(NCc5cnc6nc(N)[nH]c(=O)c6n5)cc4)C(=O)O)[C@@H](CO)O3)c2n1 (stereo partly shown) [Compound 1, O^6-Benzyl-3′-O-[γ-folyl]-2′-deoxyguanosine] | more active than O^6-benzyl-2′-deoxyguanosine itself | able to sensitize HT29 cells to killing by BCNU |  |  |
